A short description of series [1]: Acetone extraction of hesperidin from orange juice concentrate with sodium chloride (HPLC). To be noted: single extraction, orange juice five-fold concentrate + equal volume 15% sodium chloride solution. The series is classed as physicochemical. As for the experimental part: 10 ml of 15% sodium chloride solution was added to 10 ml of California orange juice concentrate (five-fold concentrate), and stirred to homogeneity, thereby obtaining an aqueous solution. The amount of hesperidin in the California orange juice concentrate used was measured by HPLC using a column ODS, where the mobile phase was a mixture of acetonitrile and water at 20:80, the flow rate was 0.5 ml/min, and the column temperature was 40° C. The absorbance of the eluate was detected at 280 nm. A specific method of detecting the amount of hesperidin is described in Japanese Laid-Open Publication No. 8-80177. […] Thereafter, the mixture was allowed to stand for 30 minutes. […] The upper phase (polar organic solvent phase) was recovered, and the volume thereof was measured. The amount of hesperidin was measured by HPLC as described above. As a result, by a single extraction operation, 75% of hesperidin was extracted in the acetone phase.

The conditions of series [2]: cited from earlier work.

On to `COc1ccc([C@@H]2CC(=O)c3c(O)cc(O[C@@H]4O[C@H](CO[C@@H]5O[C@@H](C)[C@H](O)[C@@H](O)[C@H]5O)[C@@H](O)[C@H](O)[C@H]4O)cc3O2)cc1O` [hesperidin], for which, in series [1], the “hesperidin extracted in the acetone phase” value is 75%. In addition, the solubility in acetone result in series [2] (acetone) is listed as “insoluble in acetone”. The solubility in water result in series [2] (water) was “poorly soluble in water”.

(Values after patent US7282150B2, “Method of extracting and method of purifying an effective substance” (Ezaki Glico Co., Ltd., priority 2001, dated 2007).)
